Test system: field violet (Viola arvensis, VIOAR)
Experiment: Field trials, post-emergence application in winter wheat, % biomass control visually rated
Assay type: in vivo
From the text: The materials were applied early post-emergence. % BIOMASS CONTROL was visually rated.

SMILES: COC(=O)c1nc(-c2ccc(Cl)c(OC)c2F)cc(N)c1Cl [Cmpd 1, methyl 4-amino-3-chloro-6-(4-chloro-2-fluoro-3-methoxyphenyl)-pyridine-2-carboxylate]
- % BIOMASS CONTROL 39 DAA Obs (Cmpd 1 7.5 g ae/ha): 13.33d %
- % BIOMASS CONTROL 181 DAA Obs (Cmpd 1 7.5 g ae/ha): 23.33f %
- % BIOMASS CONTROL 225 DAA Obs (Cmpd 1 7.5 g ae/ha): 18.33f %

SMILES: CC(C)N(C(=O)COc1nnc(C(F)(F)F)s1)c1ccc(F)cc1 [Flufenacet, N-(4-fluorophenyl)-N-(1-methylethyl)-2-[[5-(trifluoromethyl)-1,3,4-thiadiazol-2-yl]oxy]acetamide]
- % BIOMASS CONTROL 39 DAA Obs (flufenacet 240 g ai/ha): 10.00d %
- % BIOMASS CONTROL 181 DAA Obs (flufenacet 240 g ai/ha): 15.00g %
- % BIOMASS CONTROL 225 DAA Obs (flufenacet 240 g ai/ha): 10.00g %
